# What was measured:
# Type in all cases: in vivo
# Alopecurus myosuroides = assay: Post-emergence herbicidal effect against ALOMY; settings: visual assessment after about 3 weeks, 100% = plants have died
# Description: (§1) 1. Post-Emergence Herbicidal Effect and Crop Plant Compatibility
# (§2) Seeds of monocotyledonous and dicotyledonous weed and crop plants are laid out in sandy loam soil in wood-fibre pots, covered with soil and cultivated in a greenhouse under good growth conditions. 2 to 3 weeks after sowing, the test plants are treated at the one-leaf stage. The compounds of the invention, formulated in the form of wettable powders (WP) or as emulsion concentrates (EC), are then sprayed onto the green parts of the plants as aqueous suspension or emulsion at a water application rate equating to 600 to 800 l/ha with addition of 0.2% wetting agent. After the test plants have been left to stand in the greenhouse under optimal growth conditions for about 3 weeks, the action of the preparations is assessed visually in comparison to untreated controls (herbicidal action in percent (%): 100% activity=the plants have died, 0% activity=like control plants).
# Avena fatua = assay: Post-emergence herbicidal effect against AVEFA; settings: 80 g/ha, visual assessment after about 3 weeks, 100% = plants have died
# Description: as §1, §2
# Digitaria sanguinalis = assay: Post-emergence herbicidal effect against DIGSA; settings: visual assessment after about 3 weeks, 100% = plants have died
# Description: as §1, §2
# Echinochloa crus-galli = assay: Post-emergence herbicidal effect against ECHCG; settings: 80 g/ha, visual assessment after about 3 weeks
# Description: as §1, §2
# Lolium rigidum = assay: Post-emergence herbicidal effect against LOLRI; settings: 80 g/ha, visual assessment after about 3 weeks
# Description: as §1, §2
# Setaria viridis = assay: Post-emergence herbicidal effect against SETVI; settings: visual assessment after about 3 weeks
# Description: as §1, §2
# Hordeum murinum = assay: Post-emergence herbicidal effect against HORMU; settings: 80 g/ha, visual assessment after about 3 weeks
# Description: as §1, §2
SMILES,Post-emergence action against ALOMY (Alopecurus myosuroides; 20 g/ha),Post-emergence action against ALOMY (Alopecurus myosuroides; 80 g/ha),Post-emergence action against AVEFA (Avena fatua),Post-emergence action against DIGSA (Digitaria sanguinalis; 20 g/ha),Post-emergence action against DIGSA (Digitaria sanguinalis; 80 g/ha),Post-emergence action against ECHCG (Echinochloa crus-galli),Post-emergence action against LOLRI (Lolium rigidum),Post-emergence action against SETVI (Setaria viridis; 20 g/ha),Post-emergence action against SETVI (Setaria viridis; 80 g/ha),Post-emergence action against HORMU (Hordeum murinum)
COc1cc(C)cc(C)c1C1=C(O)C2(COC3(CCOCC3)OC2)NC1=O [Example 1-1],100%,100%,100%,100%,100%,100%,100%,100%,100%,100%
"COc1cc(Cl)cc(C)c1C1=C(O)C2(COC3(CCOCC3)OC2)NC1=O [Example 1-4, 3-(4-chloro-2-methoxy-6-methylphenyl)-4-hydroxy-7,11,14-trioxa-1-azadispiro[4.2.5^8.2^5]pentadec-3-en-2-one]",90%,100%,100%,80%,80%,80%,100%,80%,90%,
COc1cc(C)cc(C)c1C1=C([O-])C2(COC3(CCOCC3)OC2)NC1=O.[Na+] [Example 2-1],90%,100%,100%,90%,90%,100%,100%,90%,90%,90%
"COc1cc(Cl)cc(C)c1C1=C(O)C2(COC3(CCOCC3)OC2)NC1=O [Example 2-4, sodium 3-(4-chloro-2-methoxy-6-methylphenyl)-2-oxo-7,11,14-trioxa-1-azadispiro[4.2.5^8.2^5]pentadec-3-en-4-olate]",80%,100%,100%,90%,90%,80%,90%,80%,80%,
CCC(=O)OC1=C(c2c(C)cc(C)cc2OC)C(=O)NC12COC1(CCOCC1)OC2 [Example 3-1],90%,100%,90%,90%,100%,100%,100%,80%,90%,90%

# — patent US20230180758A1, “SUBSTITUTED PYRROLINE-2-ONES AND THEIR USE AS HERBICIDES” (Bayer Aktiengesellschaft, priority 2020, published 2023)
